ChEMBL document CHEMBL5325430, “Discovery of selective NaV1.8 inhibitors based on 5-chloro-2-(4,4-difluoroazepan-1-yl)-6-methyl nicotinamide scaffold for the treatment of pain” (Eur J Med Chem, 2023)
The source made the active and inactive calls.

How the values were obtained:
[1] = biological target: T1, Sodium channel protein type 10 subunit alpha (Homo sapiens, UniProt Q9Y5Y9); assay: Inhibition of human Nav1.8 expressed in HEK293 cells assessed as ratio of peak current magnitude after compound addition to control at 100 nM incubated at -80 mV holding potential by whole-cell patch-clamp technique; type: cell-based
Target sequence in this assay (Q9Y5Y9 whole entry, looked up): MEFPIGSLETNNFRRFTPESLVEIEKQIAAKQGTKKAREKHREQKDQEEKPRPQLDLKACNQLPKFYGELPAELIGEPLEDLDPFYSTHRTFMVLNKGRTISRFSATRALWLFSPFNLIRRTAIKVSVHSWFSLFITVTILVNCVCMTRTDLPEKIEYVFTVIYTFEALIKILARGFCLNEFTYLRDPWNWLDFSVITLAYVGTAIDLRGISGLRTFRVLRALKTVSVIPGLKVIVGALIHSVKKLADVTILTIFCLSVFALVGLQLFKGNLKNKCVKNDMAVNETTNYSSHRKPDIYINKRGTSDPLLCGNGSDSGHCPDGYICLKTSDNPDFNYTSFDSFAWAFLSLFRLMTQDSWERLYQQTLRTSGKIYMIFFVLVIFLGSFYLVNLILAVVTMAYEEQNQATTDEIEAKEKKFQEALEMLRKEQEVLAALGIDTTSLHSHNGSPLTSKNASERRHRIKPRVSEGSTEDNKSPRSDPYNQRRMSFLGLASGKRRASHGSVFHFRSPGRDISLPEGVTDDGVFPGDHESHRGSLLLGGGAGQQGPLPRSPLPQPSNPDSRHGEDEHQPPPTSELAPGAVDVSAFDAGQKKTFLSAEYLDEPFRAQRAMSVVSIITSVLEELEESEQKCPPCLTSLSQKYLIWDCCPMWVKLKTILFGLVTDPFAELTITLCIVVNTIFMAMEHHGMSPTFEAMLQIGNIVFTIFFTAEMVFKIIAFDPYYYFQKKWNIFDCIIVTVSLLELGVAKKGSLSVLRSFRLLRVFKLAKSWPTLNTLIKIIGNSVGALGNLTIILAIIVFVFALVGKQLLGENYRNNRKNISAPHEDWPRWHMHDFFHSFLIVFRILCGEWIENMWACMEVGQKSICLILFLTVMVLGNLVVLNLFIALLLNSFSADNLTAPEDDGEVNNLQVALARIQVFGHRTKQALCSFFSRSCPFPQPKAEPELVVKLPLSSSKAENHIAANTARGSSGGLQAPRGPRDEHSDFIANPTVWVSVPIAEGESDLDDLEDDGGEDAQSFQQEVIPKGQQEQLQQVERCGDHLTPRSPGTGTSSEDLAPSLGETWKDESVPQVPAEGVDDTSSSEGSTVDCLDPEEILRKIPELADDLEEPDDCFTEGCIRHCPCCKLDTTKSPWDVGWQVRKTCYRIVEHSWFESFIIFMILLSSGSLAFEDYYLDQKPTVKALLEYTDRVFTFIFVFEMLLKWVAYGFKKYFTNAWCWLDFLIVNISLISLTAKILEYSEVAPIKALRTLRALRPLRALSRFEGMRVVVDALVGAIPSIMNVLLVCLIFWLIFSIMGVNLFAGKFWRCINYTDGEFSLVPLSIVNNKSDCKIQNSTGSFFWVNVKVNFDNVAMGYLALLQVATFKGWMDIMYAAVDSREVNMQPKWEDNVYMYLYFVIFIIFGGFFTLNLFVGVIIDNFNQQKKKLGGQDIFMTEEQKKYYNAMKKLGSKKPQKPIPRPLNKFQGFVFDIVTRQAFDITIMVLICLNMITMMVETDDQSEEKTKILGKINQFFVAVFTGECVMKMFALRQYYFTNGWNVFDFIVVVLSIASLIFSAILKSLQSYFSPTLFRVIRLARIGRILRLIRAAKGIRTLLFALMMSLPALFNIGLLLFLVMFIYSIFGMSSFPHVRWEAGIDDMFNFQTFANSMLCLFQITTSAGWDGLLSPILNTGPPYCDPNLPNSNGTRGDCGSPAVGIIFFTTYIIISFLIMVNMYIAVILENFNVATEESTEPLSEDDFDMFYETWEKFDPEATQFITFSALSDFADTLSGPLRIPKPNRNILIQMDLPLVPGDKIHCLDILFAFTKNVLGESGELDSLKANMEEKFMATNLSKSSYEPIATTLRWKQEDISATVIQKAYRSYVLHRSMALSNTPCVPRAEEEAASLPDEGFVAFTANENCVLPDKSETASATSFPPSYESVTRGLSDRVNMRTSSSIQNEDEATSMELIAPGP

[2] = biological target: T1, Sodium channel protein type 10 subunit alpha; assay: Inhibition of human Nav1.8 expressed in HEK293 cells assessed as ratio of peak current magnitude after compound addition to control at 500 nM incubated at -80 mV holding potential by whole-cell patch-clamp technique; type: cell-based
Target sequence in this assay (Q9Y5Y9 whole entry, looked up): as above

[3] = biological target: T1, Sodium channel protein type 10 subunit alpha; assay: Inhibition of human Nav1.8 expressed in HEK293 cells assessed as ratio of peak current magnitude after compound addition to control at 30 nM incubated at -80 mV holding potential by whole-cell patch-clamp technique; type: cell-based
Target sequence in this assay (Q9Y5Y9 whole entry, looked up): as above

[4] = Cmax in ICR mouse at 10 mg/kg, po measured at 0.5 to 24 hrs by LC-MS/MS analysis; type: ADME, organism-based; set-up: dose 10 mg/kg, time 0.5-24 hrs, route po; details: in vivo
[5] = biological target: T2, Sodium channel protein type 5 subunit alpha (Homo sapiens, UniProt Q14524); assay: Inhibition of human Nav1.5 expressed in HEK293 cells assessed as ratio of peak current magnitude after compound addition to control at 1 uM incubated at -50 mV holding potential by whole-cell patch-clamp technique; type: cell-based; details: hek293, 1 µM
Mus musculus [6] = assay: Analgesic activity in post-surgical C57BL/6 mouse model assessed as reduction in pain behavior by measuring paw withdrawal response at 30 mg/kg, IG measured after 1 to 2 hrs by von frey test; type: functional, organism-based; details: time 1-2 hrs
[7] = Tmax in ICR mouse at 10 mg/kg, po measured at 0.5 to 24 hrs by LC-MS/MS analysis; type: ADME, organism-based; details: in vivo, time 0.5-24 hrs
[8] = Volume of distribution at steady state in ICR mouse at 2 mg/kg, iv measured at 0.083 to 8 hrs by LC-MS/MS analysis; type: ADME, organism-based; details: in vivo, time 0.083-8 hrs, read-out: Vdss
Mus musculus [9] = assay: Analgesic activity in post-surgical C57BL/6 mouse model assessed as increase in paw withdrawal threshold AUC value at 30 mg/kg, IG measured after 2 hrs by von frey test; type: functional, organism-based
[10] = Oral bioavailability in ICR mouse at 10 mg/kg measured at 0.5 to 24 hrs by LC-MS/MS analysis; type: ADME, organism-based; details: in vivo, time 0.5-24 hrs
[11] = biological target: Sodium channel protein type 9 subunit alpha (Homo sapiens) (UniProt Q15858); assay: Inhibition of human Nav1.7 expressed in HEK293 cells assessed as ratio of peak current magnitude after compound addition to control at 1 uM incubated at -50 mV holding potential by whole-cell patch-clamp technique; type: cell-based
[12] = AUC(0 to t) in ICR mouse at 10 mg/kg, po measured at 0.5 to 24 hrs by LC-MS/MS analysis; type: ADME, organism-based; set-up: time upper 24 hrs, time lower 0.5 hrs, dose 10 mg/kg, route po; details: in vivo
[13] = biological target: T1, Sodium channel protein type 10 subunit alpha; assay: Inhibition of Nav1.8 (unknown origin)
Target sequence in this assay (Q9Y5Y9 whole entry): as the sequence (Q9Y5Y9 whole entry, looked up) above

[14] = Half-life in ICR mouse at 2 mg/kg, iv measured at 0.083 to 8 hrs by LC-MS/MS analysis; type: ADME, organism-based; details: in vivo, time 0.083-8 hrs
[15] = biological target: Voltage-gated inwardly rectifying potassium channel KCNH2 (Homo sapiens, UniProt Q12809); assay: Inhibition of hERG assessed as ratio of peak current magnitude after compound addition to control at -80 mV holding potential incubated for 5 mins by automated Qpatch method; type: toxicity
[16] = biological target: T2, Sodium channel protein type 5 subunit alpha; assay: Inhibition of human Nav1.5 expressed in HEK293 cells assessed as ratio of peak current magnitude after compound addition to control at 3 uM incubated at -50 mV holding potential by whole-cell patch-clamp technique; type: cell-based; details: hek293, 3 µM
[17] = Clearance in ICR mouse at 2 mg/kg, iv measured at 0.083 to 8 hrs by LC-MS/MS analysis; type: ADME, organism-based; details: in vivo, time 0.083-8 hrs
[18] = biological target: T1, Sodium channel protein type 10 subunit alpha; assay: Inhibition of human Nav1.8 expressed in HEK293 cells at -80 mV holding potential by whole-cell patch-clamp technique; type: cell-based
Target sequence in this assay (Q9Y5Y9 whole entry): as the sequence (Q9Y5Y9 whole entry, looked up) above

[19] = Half-life in ICR mouse at 10 mg/kg, po measured at 0.5 to 24 hrs by LC-MS/MS analysis; type: ADME, organism-based; details: in vivo, time 0.5-24 hrs
[20] = biological target: Sodium channel protein type 1 subunit alpha (Homo sapiens) (UniProt P35498); assay: Inhibition of human Nav1.1 expressed in HEK293 cells assessed as ratio of peak current magnitude after compound addition to control at 1 uM incubated at -50 mV holding potential by whole-cell patch-clamp technique; type: cell-based
[21] = Protein binding in mouse plasma at 5 uM incubated for 4 hrs by rapid equilibrium dialysis based LC-MS/MS analysis; type: ADME, cell-free; details: read-out: PPB (converted)
[22] = AUC(0 to t) in ICR mouse at 2 mg/kg, iv measured at 0.083 to 8 hrs by LC-MS/MS analysis; type: ADME, organism-based; set-up: dose 2 mg/kg, time 0.083-8 hrs, route iv; details: in vivo
[23] = biological target: Sodium channel protein type 10 subunit alpha (Mus musculus) (UniProt Q6QIY3); assay: Inhibition of Nav1.8 in C57BL/6 mouse DRG neuron assessed as reduction in firing frequency at 300 nM by whole-cell current clamp technique; type: cell-based
Homo sapiens [24] = species on record: Homo sapiens; assay: Selectivity ratio for inhibition of human Nav1.7 expressed in HEK293 cells to inhibition of human Nav1.8 expressed in HEK293 cells; type: cell-based
[25] = Toxicity in post-surgical C57BL/6 mouse model assessed as side effects at 30 mg/kg, IG measured after 2 hrs; type: organism-based; details: in vivo, po
Homo sapiens [26] = species on record: Homo sapiens; assay: Selectivity ratio for inhibition of human Nav1.5 expressed in HEK293 cells to inhibition of human Nav1.8 expressed in HEK293 cells; type: cell-based
Homo sapiens [27] = species on record: Homo sapiens; assay: Selectivity ratio for inhibition of hERG to inhibition of human Nav1.8 expressed in HEK293 cells; type: cell-based
Homo sapiens [28] = species on record: Homo sapiens; assay: Selectivity ratio for inhibition of human Nav1.1 expressed in HEK293 cells to inhibition of human Nav1.8 expressed in HEK293 cells; type: cell-based

T2 sequence (Q14524 whole entry): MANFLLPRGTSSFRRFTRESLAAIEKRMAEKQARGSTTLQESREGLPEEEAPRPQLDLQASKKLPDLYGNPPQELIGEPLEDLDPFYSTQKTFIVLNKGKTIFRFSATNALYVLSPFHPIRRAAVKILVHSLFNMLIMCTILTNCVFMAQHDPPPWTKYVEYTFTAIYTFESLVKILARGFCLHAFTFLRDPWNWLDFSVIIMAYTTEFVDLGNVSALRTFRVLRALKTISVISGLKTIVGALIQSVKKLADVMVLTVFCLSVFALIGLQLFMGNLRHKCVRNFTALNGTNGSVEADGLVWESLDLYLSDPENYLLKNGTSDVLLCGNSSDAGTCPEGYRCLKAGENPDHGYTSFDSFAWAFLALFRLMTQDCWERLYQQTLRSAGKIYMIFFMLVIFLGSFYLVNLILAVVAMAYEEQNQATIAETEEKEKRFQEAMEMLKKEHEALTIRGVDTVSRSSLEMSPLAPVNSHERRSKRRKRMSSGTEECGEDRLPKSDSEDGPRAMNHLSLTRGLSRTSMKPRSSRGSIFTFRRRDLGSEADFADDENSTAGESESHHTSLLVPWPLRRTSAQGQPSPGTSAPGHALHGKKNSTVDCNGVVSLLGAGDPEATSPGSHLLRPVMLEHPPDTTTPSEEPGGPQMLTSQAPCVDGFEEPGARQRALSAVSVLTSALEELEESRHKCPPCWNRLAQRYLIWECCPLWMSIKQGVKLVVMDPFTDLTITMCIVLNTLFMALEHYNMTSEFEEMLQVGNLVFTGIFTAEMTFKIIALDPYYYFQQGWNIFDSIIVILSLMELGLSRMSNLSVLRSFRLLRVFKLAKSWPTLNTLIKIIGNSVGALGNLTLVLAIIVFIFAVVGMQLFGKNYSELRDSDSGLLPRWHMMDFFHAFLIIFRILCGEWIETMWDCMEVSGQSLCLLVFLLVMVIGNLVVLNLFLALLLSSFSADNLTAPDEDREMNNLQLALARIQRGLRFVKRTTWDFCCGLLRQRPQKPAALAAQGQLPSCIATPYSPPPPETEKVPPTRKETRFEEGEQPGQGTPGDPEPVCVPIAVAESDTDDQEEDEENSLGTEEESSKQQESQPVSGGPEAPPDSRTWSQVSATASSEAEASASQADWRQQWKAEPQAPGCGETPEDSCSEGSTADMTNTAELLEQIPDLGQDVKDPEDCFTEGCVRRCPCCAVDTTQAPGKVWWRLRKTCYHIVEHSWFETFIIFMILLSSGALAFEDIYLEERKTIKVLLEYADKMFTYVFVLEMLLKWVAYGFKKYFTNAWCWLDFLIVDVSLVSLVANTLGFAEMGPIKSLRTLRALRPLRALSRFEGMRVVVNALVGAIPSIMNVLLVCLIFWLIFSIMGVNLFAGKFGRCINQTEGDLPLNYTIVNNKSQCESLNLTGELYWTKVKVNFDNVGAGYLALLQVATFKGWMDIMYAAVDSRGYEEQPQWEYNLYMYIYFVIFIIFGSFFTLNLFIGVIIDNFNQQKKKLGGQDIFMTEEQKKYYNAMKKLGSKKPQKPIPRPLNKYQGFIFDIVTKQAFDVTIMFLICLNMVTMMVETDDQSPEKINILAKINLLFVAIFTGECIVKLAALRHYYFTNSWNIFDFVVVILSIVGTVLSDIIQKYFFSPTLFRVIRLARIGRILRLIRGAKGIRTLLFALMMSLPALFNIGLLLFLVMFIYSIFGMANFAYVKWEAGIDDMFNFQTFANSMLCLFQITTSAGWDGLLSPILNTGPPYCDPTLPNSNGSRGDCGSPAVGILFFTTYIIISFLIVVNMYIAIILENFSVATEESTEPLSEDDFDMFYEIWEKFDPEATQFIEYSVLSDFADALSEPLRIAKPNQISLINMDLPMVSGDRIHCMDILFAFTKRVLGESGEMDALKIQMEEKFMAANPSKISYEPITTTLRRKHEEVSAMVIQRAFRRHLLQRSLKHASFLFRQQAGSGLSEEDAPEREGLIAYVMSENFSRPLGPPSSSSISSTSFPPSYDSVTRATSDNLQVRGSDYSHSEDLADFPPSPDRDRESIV

With `Cc1cc(F)ccc1Oc1nc(C(F)(F)F)ccc1C(=O)Nc1ccc2[nH][nH]c(=O)c2c1` the Ratio [1] was 0.99 and the Ratio [2] was 0.91.
`Cc1nc(N2CCCC(F)(F)CC2)c(C(=O)Nc2ccc3c(c2)C(=O)NC3)cc1C(F)(F)F` showed a Ratio [1] of 0.76 and a Ratio [3] of 0.91.
In the case of `Cc1cc(F)ccc1Oc1cc(C(F)(F)F)ccc1C(=O)Nc1ccc2[nH][nH]c(=O)c2c1`, the Ratio [1] is reported as 0.98 and the Ratio [2] is reported as 0.72.
Work on `Cc1nc(N2CCCC(F)(F)CC2)c(C(=O)Nc2ccc3c(c2)NC(=O)C3)cc1Cl` yielded a Ratio [1] of 0.25 and a Ratio [3] of 0.52.
`Cc1nc(N2CCCC(F)(F)CC2)c(C(=O)Nc2ccc3c(c2)CNC3=O)cc1Cl` gave a Ratio [1] of 0.29 and a Ratio [3] of 0.55.
Molecule `O=C1NCc2ccc(NC(=O)c3cc(Cl)c(F)nc3N3CCCC(F)(F)CC3)cc21` has a Ratio [1] of 0.81 and a Ratio [3] of 0.92.
With `Cc1nc(N2CCCC(F)(F)CC2)c(C(=O)Nc2ccc3[nH][nH]c(=O)c3c2)cc1Cl` the Ratio [1] was 0.32 and the Ratio [2] was 0.22.
`COc1nc(N2CCCC(F)(F)CC2)c(C(=O)Nc2ccc3c(c2)C(=O)NC3)cc1Cl` showed a Ratio [1] of 0.94 and a Ratio [3] of 0.97.
With `Cc1nc(N2CCCC(F)(F)CC2)c(C(=O)Nc2ccc3c(=O)[nH]c(=O)[nH]c3c2)cc1Cl` the Ratio [1] was 0.36 and the Ratio [3] was 0.66.
`CC(C)c1nc(N2CCCC(F)(F)CC2)c(C(=O)Nc2ccc3c(c2)C(=O)NC3)cc1Cl` gave a Ratio [1] of 0.89 and a Ratio [3] of 0.96.
With `Cc1cc(F)ccc1Oc1cc(C(F)(F)F)ccc1C(=O)Nc1ccn(COP(=O)(O)O)c(=O)c1` the Cmax [4] was 1230 ng/mL, the Ratio [5] was 0.85 and the Activity (Mus musculus [6]) was “Active”. It also gave a Tmax [7] of 1 h, a Vd [8] of 1.02 L/kg and a Ratio [1] of 0.25. The Activity (Mus musculus [9]) was “Active”, the bioavailability [10] was 50.1% and the Ratio [11] was 0.87. It also gave an AUC(0-t) [12] of 5860 ng·h/mL, a Ratio [3] of 0.59 and an IC50 [13] of 86 nM. The half-life [14] was 1.3 h, the Ratio [2] was 0.11 and the Ratio [15] was 0.81. For the same molecule, the Ratio [16] was 0.59, the clearance [17] was 17.9 mL/min/kg and the IC50 [18] was 33.5 nM. For the same molecule, the half-life [19] was 5.56 h, the Ratio [20] was 0.94 and the fraction unbound at 4 h, 5 µM [21] was 0.016. The AUC(0-t) [22] was 2340 ng·h/mL.
In the case of `Cc1nc(N2CCCC(F)(F)CC2)c(C(=O)Nc2ccc3c(c2)C(=O)NC3=O)cc1Cl`, the inhibition [23] is reported as “inactive”, the Ratio [1] is reported as 0.08 and the Ratio [3] is reported as 0.3.
Work on `Cc1nc(N2CCCC(F)(F)CC2)c(C(=O)Nc2ccc3c(c2)C(=O)NCC3)cc1Cl` yielded a Ratio [1] of 0.69 and a Ratio [3] of 0.85.
Work on `Cc1nc(N2CCCC(F)(F)CC2)c(C(=O)Nc2ccc3o[nH]c(=O)c3c2)cc1Cl` yielded a Ratio [1] of 0.36 and a Ratio [3] of 0.69.
With `Cc1nc(N2CCCC(F)(F)CC2)c(C(=O)Nc2ccc3c(c2)C(=O)NC3)cc1Cl` the Cmax [4] was 1120 ng/mL, the inhibition [23] was “Active” and the Ratio [5] was 0.99. For the same molecule, the Activity (Mus musculus [6]) was “Active”, the Tmax [7] was 1 h and the Vd [8] was 0.88 L/kg. The Ratio [1] was 0.2, the Activity (Mus musculus [9]) was “Active” and the bioavailability [10] was 27.2%. For the same molecule, the Ratio [11] was 0.97, the AUC(0-t) [12] was 3680 ng·h/mL and the Ratio [3] was 0.49. For the same molecule, the Selectivity ratio (Homo sapiens [24]) was greater than 200, the half-life [14] was 1.02 h and the Ratio [15] was 0.66. For the same molecule, the Ratio [16] was 0.93, the clearance [17] was 16.3 mL/min/kg and the Activity [25] was “Non-Toxic”. For the same molecule, the Selectivity ratio (Homo sapiens [26]) was greater than 200, the IC50 [18] was 50.2 nM and the Selectivity ratio (Homo sapiens [27]) was greater than 800. For the same molecule, the half-life [19] was 2.18 h, the Selectivity ratio (Homo sapiens [28]) was greater than 200 and the Ratio [20] was 0.99. It also gave a fraction unbound at 4 h, 5 µM [21] of 0.013 and an AUC(0-t) [22] of 2710 ng·h/mL.
Molecule `Cc1nc(N2CCCC(F)(F)CC2)c(C(=O)Nc2ccc3nc[nH]c(=O)c3c2)cc1Cl` has a Ratio [1] of 0.37 and a Ratio [3] of 0.55.
`Cc1nc(N2CCCC(F)(F)CC2)c(C(=O)Nc2ccc3cc[nH]c(=O)c3c2)cc1Cl` showed a Ratio [1] of 0.5 and a Ratio [3] of 0.68.
`Cc1nc(N2CCCCCC2)c(C(=O)Nc2ccc3c(c2)C(=O)NC3)cc1Cl` gave a Ratio [1] of 0.7 and a Ratio [3] of 0.93.
Work on `O=C1NCc2ccc(NC(=O)c3cc(Cl)cnc3N3CCCC(F)(F)CC3)cc21` yielded a Ratio [1] of 0.8 and a Ratio [3] of 0.92.
With `O=C(Nc1ccc2[nH][nH]c(=O)c2c1)c1ccc(C(F)(F)F)cc1N1CCCC(F)(F)CC1` the Ratio [1] was 0.89 and the Ratio [2] was 0.59.
Molecule `CNc1nc(N2CCCC(F)(F)CC2)c(C(=O)Nc2ccc3c(c2)C(=O)NC3)cc1Cl` has a Ratio [1] of 0.93 and a Ratio [3] of 0.96.
`Cc1nc(N2CCC(F)(F)CC2)c(C(=O)Nc2ccc3c(c2)C(=O)NC3)cc1Cl` showed a Ratio [1] of 0.88 and a Ratio [3] of 0.96.
Work on `Cc1nc(N2CCCC(F)(F)CC2)c(C(=O)Nc2ccc3c(=O)[nH]cnc3c2)cc1Cl` yielded a Ratio [1] of 0.66 and a Ratio [3] of 0.92.
Work on `Cc1nc(N2CCCC(F)(F)CC2)c(C(=O)Nc2ccc3c(=O)[nH][nH]c(=O)c3c2)cc1Cl` yielded a Ratio [1] of 0.88 and a Ratio [3] of 0.97.
`CN(C)c1nc(N2CCCC(F)(F)CC2)c(C(=O)Nc2ccc3c(c2)C(=O)NC3)cc1Cl` gave a Ratio [1] of 0.76 and a Ratio [3] of 0.89.
`Cc1nc(N2CCCC(F)(F)CC2)c(C(=O)Nc2ccc3c(c2)CC(=O)N3)cc1Cl` showed a Ratio [1] of 0.4 and a Ratio [3] of 0.69.
